# Results as given in PMC2867246 (Biochemistry, 2010).
# Assays:
# [1] = system: N-type calcium channels (CaV2.2); format: cell-based; settings: pH 7.4
# Swiss Webster mice = settings: mouse, in vivo
# CaV2.2 = settings: cited from earlier work
substance,measurement,setting,value
ω-conotoxin GVIA,percentage block of N-current,[1],98.5 ± 1.0 percentage
same,behavior after injection,Swiss Webster mice,shaking syndrome
same,behavior at higher concentrations,Swiss Webster mice,passive behavior with a backwards leg-extension
same,duration of shaking behavior,Swiss Webster mice,lasted for more than a day
same,"affinity for CaV2.2, in words",CaV2.2,high affinity
